Reference: US20160272645A1, “Heterocyclic Compounds and Methods of Use” (MEDIVATION TECHNOLOGIES, INC., priority 2013, published 2016)

Tests used:
Format in all cases: biochemical
PI3Kβ = target: T1, PI3Kβ (Homo sapiens, UniProt P42338); experiment: PI3K isoform profiling, PI3Kβ (PI3Kδ protocol); details: for inhibition at 0.3 µM: compound 0.3 μM, read-out: PI3Kβ @ 0.3 μM (% Inh); for IC50: 10 dose IC50
T1 construct: purchased Reaction Biology Corporation
Source text: (§1) PI3Kδ assay: The PIP3 product is detected by displacement of biotin-PIP3 from an energy transfer complex consisting of Europium labeled anti-GST monoclonal antibody, a GST-tagged pleckstrin homology (PH) domain, biotinylated PIP3 and Streptavidin-Allophycocyanin (APC). Excitation of Europium in the complex results in an energy transfer to the APC and a fluorescent emission at 665 nm. The PIP3 product formed by PI3-Kinase (h) activity displaces biotin-PIP3 from the complex resulting in a loss of energy transfer and thus a decrease in signal. This is a 3-step reaction: First, the kinase reaction with PIP2 substrate is carried out in the presence of ATP (10 μM), and the reaction is quenched with stop Solution, and then finally detect by adding Detection Mixture followed by incubation (10 min). Reaction procedure: 1) Prepare substrate in freshly prepared Reaction Buffer. 2) Deliver kinase into the substrate solution and gently mix. 3) Deliver compounds in 100% DMSO (1 μM) into the kinase reaction mixture by Acoustic technology (Echo550; nanoliter range), incubate for 10 min at RT. 4) Deliver ATP into the reaction mixture to initiate the reaction. 5) Incubate for 30 min at 30° C. 6) Quench the reaction with Stop Solution. 7) Add Detection Mixture, and incubate for overnight. 8) Measure HTRF: Ex=320 nm, ratio of Em=615 nm and Em=665 nm. The emission ratio is converted into μM PIP3 production based on PIP3 standard curves. The nonlinear regression to obtain the standard curve and IC50 values are performed using Graphpad Prism software. Assay Buffer: HEPES 50 mM (pH7.0), NaN3 0.02%, BSA 0.01%, Orthovanadate 0.1 mM, 1% DMSO. Detection buffer: HEPES 10 mM (pH7.0), BSA 0.02%, KF 0.16 M, EDTA 4 mM. Substrate: 10 μM PIP2 substrate (PI(4,5)P2).
(§2) Compounds of the invention were profiled in a 10 dose IC50 panel against PI3Kα, PI3Kβ, and PI3Kγ kinases, provided by Reaction Biology Corporation, applied to the PI3Kδ protocol provided in Example B1.

PI3Kα = target: T2, PI3Kα (Homo sapiens, UniProt P42336); experiment: PI3K isoform profiling, PI3Kα (PI3Kδ protocol); details: for inhibition at 0.3 µM: compound 0.3 μM, read-out: PI3Kα @ 0.3 μM (% Inh); for IC50: 10 dose IC50
T2 construct: purchased Reaction Biology Corporation
T2 sequence (P42336 whole entry, canonical isoform): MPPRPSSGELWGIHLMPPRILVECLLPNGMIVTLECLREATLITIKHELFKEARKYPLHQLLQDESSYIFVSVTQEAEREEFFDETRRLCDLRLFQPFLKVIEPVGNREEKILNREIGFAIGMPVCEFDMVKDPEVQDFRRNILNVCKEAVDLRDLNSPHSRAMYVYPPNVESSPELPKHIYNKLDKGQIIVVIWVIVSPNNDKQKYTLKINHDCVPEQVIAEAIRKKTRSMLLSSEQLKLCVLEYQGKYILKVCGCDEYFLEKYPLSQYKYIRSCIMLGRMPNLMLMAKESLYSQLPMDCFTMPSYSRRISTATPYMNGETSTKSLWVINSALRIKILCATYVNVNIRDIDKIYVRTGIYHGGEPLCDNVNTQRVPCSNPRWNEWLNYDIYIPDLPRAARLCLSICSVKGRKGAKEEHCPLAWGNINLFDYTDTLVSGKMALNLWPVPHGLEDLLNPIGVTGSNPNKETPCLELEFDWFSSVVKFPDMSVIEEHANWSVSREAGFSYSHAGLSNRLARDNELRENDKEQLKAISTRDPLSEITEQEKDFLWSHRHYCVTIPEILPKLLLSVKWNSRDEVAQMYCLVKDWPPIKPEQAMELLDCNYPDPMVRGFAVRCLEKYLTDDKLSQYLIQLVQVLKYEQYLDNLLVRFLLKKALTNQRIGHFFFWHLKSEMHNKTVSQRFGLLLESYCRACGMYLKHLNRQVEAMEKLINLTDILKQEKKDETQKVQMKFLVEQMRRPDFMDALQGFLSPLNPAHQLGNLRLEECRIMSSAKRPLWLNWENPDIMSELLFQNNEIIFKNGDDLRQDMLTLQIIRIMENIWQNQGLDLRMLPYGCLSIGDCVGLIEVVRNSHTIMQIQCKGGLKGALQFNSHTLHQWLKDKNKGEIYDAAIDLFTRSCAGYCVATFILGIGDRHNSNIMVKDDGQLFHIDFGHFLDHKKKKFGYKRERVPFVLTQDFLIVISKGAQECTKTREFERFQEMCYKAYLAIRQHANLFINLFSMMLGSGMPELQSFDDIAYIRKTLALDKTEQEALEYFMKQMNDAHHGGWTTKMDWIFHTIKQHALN
T2 sequence (P27986 whole entry partner, canonical isoform): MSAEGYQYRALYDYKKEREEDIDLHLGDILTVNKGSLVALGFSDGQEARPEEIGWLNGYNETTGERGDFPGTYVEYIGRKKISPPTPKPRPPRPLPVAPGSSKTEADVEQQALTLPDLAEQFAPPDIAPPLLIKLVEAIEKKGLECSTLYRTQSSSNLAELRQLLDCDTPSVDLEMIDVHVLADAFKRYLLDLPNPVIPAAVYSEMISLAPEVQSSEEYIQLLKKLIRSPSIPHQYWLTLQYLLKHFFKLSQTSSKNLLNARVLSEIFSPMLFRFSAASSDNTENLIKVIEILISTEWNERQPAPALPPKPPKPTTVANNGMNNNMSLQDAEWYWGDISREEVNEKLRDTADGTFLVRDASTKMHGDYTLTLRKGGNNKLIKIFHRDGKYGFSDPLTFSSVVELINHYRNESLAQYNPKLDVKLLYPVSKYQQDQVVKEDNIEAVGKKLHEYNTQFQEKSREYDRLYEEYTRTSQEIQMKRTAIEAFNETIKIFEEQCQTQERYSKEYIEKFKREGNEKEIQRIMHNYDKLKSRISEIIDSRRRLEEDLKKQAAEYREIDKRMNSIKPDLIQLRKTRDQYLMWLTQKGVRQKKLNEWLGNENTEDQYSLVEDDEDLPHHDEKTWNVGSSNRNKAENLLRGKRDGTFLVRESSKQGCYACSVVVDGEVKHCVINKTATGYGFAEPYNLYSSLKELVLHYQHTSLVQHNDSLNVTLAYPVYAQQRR
Source text: as §1, §2

BMX/ETK = target: T3, BMX/ETK (Homo sapiens, UniProt P51813); experiment: BMX/ETK kinase profiling (BTK protocol); details: compound 0.3 μM; read-out: BMX/ETK @ 0.3 μM (% Inh)
T3 construct: purchased Reaction Biology Corporation
T3 sequence (P51813 1-675): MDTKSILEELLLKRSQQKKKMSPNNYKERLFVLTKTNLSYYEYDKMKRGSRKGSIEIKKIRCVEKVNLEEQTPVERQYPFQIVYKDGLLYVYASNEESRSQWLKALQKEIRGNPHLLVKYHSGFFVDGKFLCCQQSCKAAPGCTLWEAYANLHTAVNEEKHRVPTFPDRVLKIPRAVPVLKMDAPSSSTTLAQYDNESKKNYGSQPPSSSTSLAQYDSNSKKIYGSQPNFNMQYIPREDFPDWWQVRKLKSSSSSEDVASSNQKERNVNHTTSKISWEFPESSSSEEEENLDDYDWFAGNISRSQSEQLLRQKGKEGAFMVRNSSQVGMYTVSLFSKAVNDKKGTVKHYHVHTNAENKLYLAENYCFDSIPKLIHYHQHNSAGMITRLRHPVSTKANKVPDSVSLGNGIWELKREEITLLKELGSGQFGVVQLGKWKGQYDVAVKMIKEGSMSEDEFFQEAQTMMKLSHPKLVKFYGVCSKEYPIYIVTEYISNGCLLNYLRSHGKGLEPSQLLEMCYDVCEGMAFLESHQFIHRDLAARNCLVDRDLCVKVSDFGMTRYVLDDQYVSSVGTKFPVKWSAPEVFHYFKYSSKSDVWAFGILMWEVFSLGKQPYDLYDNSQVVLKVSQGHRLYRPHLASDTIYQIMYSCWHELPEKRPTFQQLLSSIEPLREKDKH
Experimental: (§3) BTK assay: In vitro profiling protein kinases was performed using the “HotSpot” assay platform. Briefly, specific kinase/substrate pairs along with required cofactors were prepared in reaction buffer. Compounds were prepared as 10 mM stock solutions in DMSO. Compounds were delivered into the reaction, followed 15-20 minutes later by addition of a mixture of ATP (Sigma, St. Louis Mo.) and ^33P ATP (Perkin Elmer, Waltham Mass.) to a final concentration of 10 μM. Reactions were carried out at RT for 120 min, followed by spotting of the reactions onto P81 ion exchange filter paper (Whatman Inc., Piscataway, N.J.). Unbound phosphate was removed by extensive washing of filters in 0.75% Phosphoric acid. […] ICso values and curve fits were obtained using Prism (GraphPad Software). Buffer Conditions: 20 mM Hepes (pH 7.5), 10 mM MgCl2, 1 mM EGTA, 0.02% Brij35, 0.02 mg/mL BSA, 0.1 mM Na3VO4, 2 mM DTT, 1% DMSO.
(§4) Compounds of the invention were profiled in a 10 dose IC50 panel against BMX/ETK, ITK and TEC kinases, provided by Reaction Biology Corporation, applied to the BTK protocol provided in Example B1.

ITK = target: T4, ITK (Homo sapiens, UniProt Q08881); experiment: ITK kinase profiling (BTK protocol); details: compound 0.3 μM; read-out: ITK @ 0.3 μM (% Inh)
T4 construct: purchased Reaction Biology Corporation
T4 sequence (Q08881 1-620): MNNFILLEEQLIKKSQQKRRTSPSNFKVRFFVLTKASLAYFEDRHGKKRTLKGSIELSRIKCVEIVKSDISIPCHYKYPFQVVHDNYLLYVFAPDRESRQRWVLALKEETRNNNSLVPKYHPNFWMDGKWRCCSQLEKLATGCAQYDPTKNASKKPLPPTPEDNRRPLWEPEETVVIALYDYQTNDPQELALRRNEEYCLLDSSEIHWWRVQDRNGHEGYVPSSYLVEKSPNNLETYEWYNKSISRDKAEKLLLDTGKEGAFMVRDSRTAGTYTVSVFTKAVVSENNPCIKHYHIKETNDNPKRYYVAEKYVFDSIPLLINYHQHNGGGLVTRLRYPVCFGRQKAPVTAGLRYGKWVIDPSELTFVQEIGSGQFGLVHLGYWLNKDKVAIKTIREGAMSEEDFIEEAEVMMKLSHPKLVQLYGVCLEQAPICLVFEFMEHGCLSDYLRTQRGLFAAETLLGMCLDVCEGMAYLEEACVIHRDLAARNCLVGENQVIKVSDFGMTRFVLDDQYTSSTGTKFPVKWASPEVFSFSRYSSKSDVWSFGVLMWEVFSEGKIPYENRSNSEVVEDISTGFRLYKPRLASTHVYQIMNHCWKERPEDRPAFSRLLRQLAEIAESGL
Experimental: as §3, §4

T1 sequence (P42338 whole entry, canonical isoform): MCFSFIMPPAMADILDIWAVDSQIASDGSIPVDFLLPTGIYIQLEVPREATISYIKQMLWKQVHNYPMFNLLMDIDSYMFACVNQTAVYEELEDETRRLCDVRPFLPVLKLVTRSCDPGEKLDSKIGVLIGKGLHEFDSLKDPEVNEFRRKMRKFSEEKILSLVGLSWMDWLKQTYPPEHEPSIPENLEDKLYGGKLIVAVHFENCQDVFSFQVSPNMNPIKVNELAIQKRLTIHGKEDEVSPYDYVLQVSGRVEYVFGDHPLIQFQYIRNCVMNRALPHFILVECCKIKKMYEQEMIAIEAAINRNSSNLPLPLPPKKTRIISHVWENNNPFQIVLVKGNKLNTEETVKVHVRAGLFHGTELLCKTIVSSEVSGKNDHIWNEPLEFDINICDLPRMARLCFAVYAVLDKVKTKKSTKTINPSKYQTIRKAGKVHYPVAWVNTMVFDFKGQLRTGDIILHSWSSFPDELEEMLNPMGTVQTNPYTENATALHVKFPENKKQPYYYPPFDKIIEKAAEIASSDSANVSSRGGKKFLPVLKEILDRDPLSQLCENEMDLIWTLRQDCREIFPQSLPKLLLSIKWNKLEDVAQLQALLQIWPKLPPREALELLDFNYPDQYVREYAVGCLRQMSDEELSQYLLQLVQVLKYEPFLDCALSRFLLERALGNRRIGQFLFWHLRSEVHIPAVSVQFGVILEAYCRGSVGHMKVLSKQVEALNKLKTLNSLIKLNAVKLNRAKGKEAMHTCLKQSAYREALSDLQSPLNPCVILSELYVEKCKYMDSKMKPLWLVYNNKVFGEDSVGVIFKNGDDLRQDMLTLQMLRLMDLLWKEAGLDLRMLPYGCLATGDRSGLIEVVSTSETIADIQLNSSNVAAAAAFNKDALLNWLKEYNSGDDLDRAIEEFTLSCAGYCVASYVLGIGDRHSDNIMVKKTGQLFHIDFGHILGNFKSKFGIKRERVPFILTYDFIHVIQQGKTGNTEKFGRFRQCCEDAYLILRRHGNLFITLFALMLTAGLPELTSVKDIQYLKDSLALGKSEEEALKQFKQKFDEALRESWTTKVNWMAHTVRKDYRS
T1 sequence (P27986 whole entry partner, canonical isoform): as the sequence (P27986 whole entry partner, canonical isoform) above

inhibition at 0.3 µM (PI3Kβ) [%] | inhibition at 0.3 µM (PI3Kα) [%] | inhibition at 0.3 µM (BMX/ETK) [%] | inhibition at 0.3 µM (ITK) [%] | IC50 (PI3Kβ) [µM] | IC50 (PI3Kα) [µM] | Compound
62 | 50.5 | 43.5 | 0.06 |  |  | Nc1ncnc2c1c(-c1cc(O)cc(F)c1)nn2CCNc1ccccc1 [Compound 1, 3-(4-amino-1-(2-(phenylamino)ethyl)-1H-pyrazolo [3,4-d]pyrimidin-3-yl)-5-fluorophenol]
30.4 | 20.1 | 98.5 | 50.7 | 5.28 | 4.21 | C=CC(=O)N(CCn1nc(-c2cc(O)cc(F)c2)c2c(N)ncnc21)c1ccccc1 [Compound 2, N-(2-(4-amino-3-(3-fluoro-5-hydroxyphenyl)-1H-pyrazolo[3,4-d]pyrimidin-1-yl)ethyl)-N-phenylacrylamide]
45.8 | 26.4 | 92.5 | 10.2 | 3.41 | 3.32 | C=CC(=O)N(CCn1nc(-c2cc(O)cc(F)c2)c2c(N)ncnc21)Cc1ccccc1 [Compound 5, N-(2-(4-amino-3-(3-fluoro-5-hydroxyphenyl)-1H-pyrazolo[3,4-d]pyrimidin-1-yl)ethyl)-N-benzylacrylamide]
16.3 |  | 93 | 30.5 |  | 0.504 | C=CC(=O)N(CCn1nc(-c2cc(O)cc(F)c2)c2c(N)ncnc21)Cc1ccc(F)cc1 [Compound 10, N-{2-[4-amino-3-(3-fluoro-5-hydroxyphenyl)-1H-pyrazolo [3,4-d]pyrimidin-1-yl]ethyl}-N-[(4-fluorophenyl)methyl]prop-2-enamide]
41 |  | 93.5 | 34.7 |  | 3.22 | C=CC(=O)N(CCn1nc(-c2cc(O)cc(F)c2)c2c(N)ncnc21)Cc1ccccc1F [Compound 11, N-[2-[4-amino-3-(3-fluoro-5-hydroxy-phenyl)pyrazolo[3,4-d]pyrimidin-1-yl]ethyl]-N-[(2-fluorophenyl)methyl]prop-2-enamide]
31.3 |  | 94.2 | 62.5 |  | 0.869 | C=CC(=O)N(CCn1nc(-c2cc(O)cc(F)c2)c2c(N)ncnc21)Cc1ccc(Cl)cc1 [Compound 12, N-{2-[4-amino-3-(3-fluoro-5-hydroxyphenyl)-1H-pyrazolo[3,4-d]pyrimidin-1-yl]ethyl}-N-[(4-chlorophenyl)methyl]prop-2-enamide]
25.2 |  | 97.2 | 8.93 |  | 0.29 | C=CC(=O)N(CCn1nc(-c2cc(O)c(F)c(F)c2)c2c(N)ncnc21)Cc1ccc(Cl)cc1 [Compound 16, N-{2-[4-amino-3-(3,4-difluoro-5-hydroxyphenyl)-1H-pyrazolo[3,4-d]pyrimidin-1-yl]ethyl}-N-[(4-chlorophenyl)methyl]prop-2-enamide]
